Results taken from patent US12365655B2, “Compounds” (CTXT PTY LTD, priority 2018, dated 2025).

Key:
QKF-KAT6B = biological target: T1, QKF-KAT6B (Homo sapiens, UniProt Q8WYB5); assay: Acetyltransferase biochemical assay (AlphaScreen), KAT6B; details: 8 nM KAT6B, 1 μM AcCoA, 100 nM histone H3.1
T1 construct: purchased SignalChem K315-381BG
Description: KAT6B was obtained from SignalChem, catalog ID: K315-381BG

TIP60-KAT5 = TIP60-KAT5 (Homo sapiens, UniProt Q92993); assay: Acetyltransferase biochemical assay (AlphaScreen), KAT5
HBO-KAT7 = HBO-KAT7 (Homo sapiens, UniProt O95251); assay: Acetyltransferase biochemical assay (AlphaScreen), KAT7
MOZ-KAT6A = MOZ-KAT6A (Homo sapiens, UniProt Q92794, A567V); assay: Acetyltransferase biochemical assay (AlphaScreen), KAT6A
[1] = test system: acetylation of the histone H3 Lysine 14 marker in U2OS cells; assay: Histone H3 Lysine 14 Acetylation Biomarker Assay; type: cell-based; details: Homo sapiens, serum free medium, 24 hours incubation, read-out: IC50, inhibition of histone H3 Lysine 14 acetylation
Protocol: Compounds were tested for their ability to inhibit acetylation of the histone H3 Lysine 14 marker in the following assay:
The cell line U2OS was seeded at a density of 3,000 cells per well in 384-well optical quality tissue culture plates in RPMI medium supplemented with 10% foetal bovine serum and 10 mM Hepes. The cells were allowed to adhere for 24 hours under standard culture conditions (37 degree Celsius, 5% CO2). At the end of this period the cells were washed with serum free medium. […] After incubation for 24 hours, the cells were fixed with 4% formaldehyde in PBS for 15 minutes at room temperature, washed with phosphate buffer saline and blocked with blocking buffer containing 0.2% TritonX100 and 2% BSA. Anti-H3K14ac specific antibody (Cell Signalling Technologies) in blocking buffer was added and incubated overnight at 4 degree Celsius. After washing, a secondary antibody labelled with AlexaFluor 488 dye (ThermoFisher) and Hoechst 33342 (1 μg/mL, Life Technologies) were added for 2 hours incubation at room temperature. Plates were washed and read on a PerkinElmer Opera HCS high content imaging platform. Using a Columbus image analysis pipeline, individual nuclei were located by Hoechst 33342 stain and the acetylation level was calculated from the AlexaFluor 488-related intensity in the same area.

[2] = test system: histone H2A.Z Lysine 7 acetylation marker in U2OS cells; assay: H2A.Z Lysine 7 Acetylation Biomarker Assay; type: cell-based; details: Homo sapiens, serum free medium, 24 hours incubation, read-out: IC50, inhibition of histone H2A.Z Lysine 7 acetylation
Protocol: Compounds were tested for their ability to inhibit the histone H2A.Z Lysine 7 acetylation marker in the following assay:
The cell line U2OS was seeded at a density of 3,000 cells per well in 384-well optical quality tissue culture plates in RPMI medium supplemented with 10% foetal bovine serum and 10 mM Hepes. The cells were allowed to adhere for 24 hours under standard culture conditions (37 degree Celsius, 5% CO2). At the end of this period the cells were washed with serum free medium. […] 2018, at 30 μM concentration. After incubation for 24 hours, the cells were fixed with 4% formaldehyde in PBS for 15 minutes at room temperature, washed with phosphate buffer saline and blocked with blocking buffer containing 0.2% TritonX100 and 2% BSA. Anti-H2A.ZK7ac specific antibody (Abcam) in blocking buffer was added and incubated overnight at 4 degree Celsius. After washing, a secondary antibody labelled with AlexaFluor 488 dye (ThermoFisher) and Hoechst 33342 (1 μg/mL, Life Technologies) were added for 2 hours incubation at room temperature. Plates were washed and read on a PerkinElmer Opera HCS high content imaging platform. Using a Columbus image analysis pipeline, individual nuclei were located by Hoechst 33342 stain and the acetylation level was calculated from the AlexaFluor 488-related intensity in the same area.

MOF-KAT8 = biological target: T2, MOF-KAT8 (Homo sapiens, UniProt Q9H7Z6); assay: biochemical
T2 sequence (Q9H7Z6 with tags, fused parts or gaps): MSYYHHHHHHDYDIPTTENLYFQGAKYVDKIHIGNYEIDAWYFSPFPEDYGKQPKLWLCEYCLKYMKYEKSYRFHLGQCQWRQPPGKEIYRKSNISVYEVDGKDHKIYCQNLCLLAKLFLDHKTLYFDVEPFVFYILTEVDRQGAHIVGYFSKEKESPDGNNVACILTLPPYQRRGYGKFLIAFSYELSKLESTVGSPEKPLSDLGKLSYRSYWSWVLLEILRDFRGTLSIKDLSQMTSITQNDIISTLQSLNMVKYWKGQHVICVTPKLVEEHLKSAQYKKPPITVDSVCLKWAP

[3] = test system: acetylation of the histone H3K23 marker in U2OS cells; assay: Histone H3 Lysine 23 Acetylation Biomarker Assay; type: cell-based; details: Homo sapiens, 24 hours incubation, read-out: IC50, inhibition of histone H3K23 acetylation
Protocol: Compounds were tested for their ability to inhibit acetylation of the histone H3K23 marker in the following assay:
The cell line U2OS was seeded at a density of 9,000 cells per well in 96 well optical quality tissue culture plates in RPMI medium and 10% foetal bovine serum, and allowed to adhere for 24 hours under standard culture conditions (37 degree Celsius, 5% CO2). At the end of this period the medium was aspirated. […] After incubation for 24 hours, the cells were fixed with 3.7% formaldehyde in PBS for 20 minutes at room temperature, washed (5×5 minutes) with phosphate buffer saline containing 0.1% Tween 20 and blocked with Odyssey blocking buffer (LI-COR, Lincoln, Nebr.) containing 0.1% TritonX100. Anti-H3K23ac specific antibody (Abcam ab177275) in Odyssey blocking buffer containing 0.1% Tween 20 was added and incubated for 16 hours at 4 degree Celsius. After washing (as above), a secondary antibody labelled with Alexa647 dye (LifeTechnologies) and Hoechst 33342 (1 μg/mL, SigmaAldrich) were added for 1 hour incubation. Plates were washed as previously and read on a PerkinElmer Phenix high content imaging platform. Using a Columbus image analysis pipeline, individual nuclei were located by Hoechst 33342 stain and the acetylation level was calculated from the Alexa647-related intensity in the same area.

Sequence of MOZ-KAT6A (Q92794 with tags, fused parts or gaps A567V): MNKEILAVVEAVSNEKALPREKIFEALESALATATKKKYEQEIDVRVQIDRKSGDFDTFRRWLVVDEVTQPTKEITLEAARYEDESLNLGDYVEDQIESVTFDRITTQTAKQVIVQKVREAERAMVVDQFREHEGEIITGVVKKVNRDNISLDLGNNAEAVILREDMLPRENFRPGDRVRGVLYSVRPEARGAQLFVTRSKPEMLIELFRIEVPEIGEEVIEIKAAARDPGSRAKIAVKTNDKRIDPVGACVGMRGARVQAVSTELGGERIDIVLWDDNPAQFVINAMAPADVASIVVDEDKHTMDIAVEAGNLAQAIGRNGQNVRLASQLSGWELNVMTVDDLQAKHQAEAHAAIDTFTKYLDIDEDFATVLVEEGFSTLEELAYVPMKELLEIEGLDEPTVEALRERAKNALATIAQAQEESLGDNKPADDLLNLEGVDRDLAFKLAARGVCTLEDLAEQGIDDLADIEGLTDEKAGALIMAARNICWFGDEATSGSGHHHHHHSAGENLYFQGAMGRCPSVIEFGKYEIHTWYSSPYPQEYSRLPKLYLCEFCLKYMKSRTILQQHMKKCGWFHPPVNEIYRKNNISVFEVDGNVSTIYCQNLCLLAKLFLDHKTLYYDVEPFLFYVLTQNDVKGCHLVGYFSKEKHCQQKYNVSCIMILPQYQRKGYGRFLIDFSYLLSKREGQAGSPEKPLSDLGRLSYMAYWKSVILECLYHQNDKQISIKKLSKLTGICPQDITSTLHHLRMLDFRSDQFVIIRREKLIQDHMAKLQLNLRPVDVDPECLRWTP
T1 sequence (Q8WYB5 whole entry): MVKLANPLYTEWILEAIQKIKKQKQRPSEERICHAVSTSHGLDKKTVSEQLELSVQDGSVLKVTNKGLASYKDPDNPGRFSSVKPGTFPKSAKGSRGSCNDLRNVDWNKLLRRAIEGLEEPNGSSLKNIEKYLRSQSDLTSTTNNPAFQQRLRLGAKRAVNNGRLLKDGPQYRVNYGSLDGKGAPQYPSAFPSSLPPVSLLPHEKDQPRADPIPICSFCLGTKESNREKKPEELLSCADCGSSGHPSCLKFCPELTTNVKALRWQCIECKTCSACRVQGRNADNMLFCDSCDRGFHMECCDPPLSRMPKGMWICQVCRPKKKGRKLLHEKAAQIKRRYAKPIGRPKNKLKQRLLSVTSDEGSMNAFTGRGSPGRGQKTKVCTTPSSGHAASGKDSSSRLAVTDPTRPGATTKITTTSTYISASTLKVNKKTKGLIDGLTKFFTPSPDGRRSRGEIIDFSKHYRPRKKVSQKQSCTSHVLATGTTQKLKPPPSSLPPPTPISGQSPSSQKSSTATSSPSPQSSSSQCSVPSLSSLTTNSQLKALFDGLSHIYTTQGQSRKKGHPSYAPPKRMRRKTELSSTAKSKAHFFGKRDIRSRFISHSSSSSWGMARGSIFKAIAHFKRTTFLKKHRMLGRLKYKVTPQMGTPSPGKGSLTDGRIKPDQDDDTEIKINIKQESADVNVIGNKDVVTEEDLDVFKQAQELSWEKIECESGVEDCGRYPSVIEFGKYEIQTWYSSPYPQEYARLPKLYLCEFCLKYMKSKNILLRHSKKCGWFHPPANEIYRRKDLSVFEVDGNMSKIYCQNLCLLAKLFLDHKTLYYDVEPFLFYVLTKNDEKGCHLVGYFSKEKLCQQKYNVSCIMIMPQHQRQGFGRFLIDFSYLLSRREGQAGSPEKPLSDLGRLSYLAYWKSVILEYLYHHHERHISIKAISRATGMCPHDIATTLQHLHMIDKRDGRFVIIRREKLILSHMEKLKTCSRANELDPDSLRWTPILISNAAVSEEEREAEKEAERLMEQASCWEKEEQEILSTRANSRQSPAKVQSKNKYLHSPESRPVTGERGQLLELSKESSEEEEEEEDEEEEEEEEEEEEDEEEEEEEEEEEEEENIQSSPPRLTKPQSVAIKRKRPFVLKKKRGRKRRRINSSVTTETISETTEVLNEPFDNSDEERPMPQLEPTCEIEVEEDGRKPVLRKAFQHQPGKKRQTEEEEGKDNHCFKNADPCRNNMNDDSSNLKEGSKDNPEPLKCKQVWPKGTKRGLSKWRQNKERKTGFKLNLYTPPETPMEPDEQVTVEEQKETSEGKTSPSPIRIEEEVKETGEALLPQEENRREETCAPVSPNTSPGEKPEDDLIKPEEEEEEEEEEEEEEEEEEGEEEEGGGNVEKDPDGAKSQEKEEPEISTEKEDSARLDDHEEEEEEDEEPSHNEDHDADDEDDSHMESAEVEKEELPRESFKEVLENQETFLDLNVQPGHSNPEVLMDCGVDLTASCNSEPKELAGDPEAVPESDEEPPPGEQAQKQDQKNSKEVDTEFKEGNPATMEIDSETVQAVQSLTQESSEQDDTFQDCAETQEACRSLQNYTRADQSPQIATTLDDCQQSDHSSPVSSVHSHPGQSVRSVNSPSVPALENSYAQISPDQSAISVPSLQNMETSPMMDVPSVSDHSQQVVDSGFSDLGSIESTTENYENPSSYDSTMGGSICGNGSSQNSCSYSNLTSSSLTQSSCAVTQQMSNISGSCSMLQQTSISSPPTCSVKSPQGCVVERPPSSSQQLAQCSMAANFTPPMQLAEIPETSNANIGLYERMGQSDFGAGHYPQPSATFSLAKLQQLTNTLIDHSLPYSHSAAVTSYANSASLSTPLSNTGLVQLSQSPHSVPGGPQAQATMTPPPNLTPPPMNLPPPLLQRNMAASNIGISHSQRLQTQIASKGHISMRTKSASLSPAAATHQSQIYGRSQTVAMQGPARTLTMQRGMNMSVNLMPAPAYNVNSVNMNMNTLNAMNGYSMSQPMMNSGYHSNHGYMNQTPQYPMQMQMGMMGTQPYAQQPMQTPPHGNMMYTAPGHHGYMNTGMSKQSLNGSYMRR
Sequence of HBO-KAT7 (O95251 with tags, fused parts or gaps): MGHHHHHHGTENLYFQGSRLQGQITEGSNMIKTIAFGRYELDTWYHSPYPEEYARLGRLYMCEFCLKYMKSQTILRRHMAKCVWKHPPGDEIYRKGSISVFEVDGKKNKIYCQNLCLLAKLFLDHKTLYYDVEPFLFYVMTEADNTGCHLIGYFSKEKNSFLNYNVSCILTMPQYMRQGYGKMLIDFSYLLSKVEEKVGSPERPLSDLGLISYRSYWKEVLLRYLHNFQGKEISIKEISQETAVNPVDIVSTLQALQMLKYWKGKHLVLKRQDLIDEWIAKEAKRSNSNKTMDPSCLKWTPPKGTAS
Sequence of TIP60-KAT5 (Q92993 with tags, fused parts or gaps isoform Q92993-2): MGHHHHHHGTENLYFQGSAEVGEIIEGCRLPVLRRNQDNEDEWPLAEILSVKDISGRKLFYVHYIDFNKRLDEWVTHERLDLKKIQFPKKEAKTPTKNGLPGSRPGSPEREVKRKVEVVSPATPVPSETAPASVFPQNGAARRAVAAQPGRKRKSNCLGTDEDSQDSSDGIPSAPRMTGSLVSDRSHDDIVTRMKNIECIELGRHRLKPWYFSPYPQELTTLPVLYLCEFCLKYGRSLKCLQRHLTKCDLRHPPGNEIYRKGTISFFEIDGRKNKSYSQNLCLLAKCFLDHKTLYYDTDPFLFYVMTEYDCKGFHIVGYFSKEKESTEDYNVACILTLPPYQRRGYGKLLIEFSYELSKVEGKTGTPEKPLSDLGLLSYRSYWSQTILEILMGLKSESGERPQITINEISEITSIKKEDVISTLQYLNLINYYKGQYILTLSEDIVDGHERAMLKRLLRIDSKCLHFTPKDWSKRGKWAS

| Compound | IC50 (QKF-KAT6B) | IC50 (TIP60-KAT5) | IC50 (HBO-KAT7) | IC50 (MOZ-KAT6A) | IC50 [1] | IC50 [2] | IC50 (MOF-KAT8) | IC50 [3] |
| --- | --- | --- | --- | --- | --- | --- | --- | --- |
| COCc1cc(OC)c2c(NS(=O)(=O)c3c(OC)ccc(Cl)c3OC)noc2c1 [Example 175, 3-Chloro-2,6-dimethoxy-N-(4-methoxy-6-(methoxymethyl)benzo[d]isoxazol-3-yl)benzenesulfonamide] | 821 nM | 43200 nM | 5950 nM | 441 nM | – | – | – | – |
| COc1cccc(OC)c1S(=O)(=O)Nc1noc2cc(-c3ncco3)c(C)cc12 [Example 102, 2,6-Dimethoxy-N-(5-methyl-6-(oxazol-2-yl)benzo[d]isoxazol-3-yl)benzenesulfonamide] | 282 nM | 9330 nM | 568 nM | 143 nM | 3690 nM | > 40000 nM | 11500 nM | – |
| COc1cccc(OC)c1S(=O)(=O)Nc1noc2cc(-c3ncco3)ccc12 [Example 147, 2,6-Dimethoxy-N-(6-(oxazol-2-yl)benzo[d]isoxazol-3-yl)benzenesulfonamide] | > 125000 nM | > 125000 nM | > 125000 nM | 93600 nM | > 40000 nM | > 40000 nM | – | > 10000 nM |
| COc1cccc(OC)c1S(=O)(=O)Nc1noc2cc(-c3ccccn3)cc(OC)c12 [Example 146, 2,6-Dimethoxy-N-(4-methoxy-6-(pyridin-2-yl)benzo[d]isoxazol-3-yl)benzenesulfonamide] | 291 nM | 22000 nM | 511 nM | 153 nM | 2300 nM | 15100 nM | – | 45 nM |
| COc1cccc2onc(NS(=O)(=O)c3cccc4cc(C)cnc34)c12 [Example 73, N-(4-methoxybenzo[d]isoxazol-3-yl)-3-methyl quinoline-8-sulfonamide] | 4050 nM | 2160 nM | 508 nM | 4550 nM | 12500 nM | 36700 nM | 3460 nM | > 10000 nM |
| COc1cccc(-c2cc(OC)c3c(NS(=O)(=O)c4c(OC)cccc4OC)noc3c2)c1 [Example 177, 2,6-Dimethoxy-N-(4-methoxy-6-(3-methoxyphenyl)benzo[d]isoxazol-3-yl)benzenesulfonamide] | 92 nM | 7080 nM | 21 nM | 127 nM | 135 nM | 1090 nM | – | 1490 nM |
| COc1ccc(-c2ccccc2)c(OC)c1S(=O)(=O)Nc1noc2cccc(OC)c12 [Example 96, 2,4-Dimethoxy-N-(4-methoxybenzo[d]isoxazol-3-yl)-[1,1-biphenyl]-3-sulfonamide] | 3390 nM | 28600 nM | 4270 nM | 1200 nM | – | – | 53800 nM | > 10000 nM |
| COc1ccccc1-c1cc(OC)c2c(NS(=O)(=O)c3c(OC)cccc3OC)noc2c1 [Example 176, 2,6-Dimethoxy-N-(4-methoxy-6-(2-methoxyphenyl)benzo[d]isoxazol-3-yl)benzenesulfonamide] | 121 nM | 5670 nM | 138 nM | 30 nM | 1070 nM | 7610 nM | – | 685 nM |
| COc1cccc(OC)c1S(=O)(=O)Nc1noc2cc(-c3ccccc3)cc(OC)c12 [Example 174, 2,6-Dimethoxy-N-(4-methoxy-6-phenylbenzo[d]isoxazol-3-yl)benzenesulfonamide] | 18 nM | 1830 nM | 31 nM | 13 nM | 68 nM | 1540 nM | – | 17 nM |
| CCc1ccc(OC)c(S(=O)(=O)Nc2noc3ccc(C4CC4)c(Cl)c23)c1 [Example 207] | 1450 nM | 4610 nM | 257 nM | 104 nM | – | – | – | – |
| CCc1ccc(OC)c(S(=O)(=O)Nc2noc3cccc(OC)c23)c1 [Example 116, 5-Ethyl-2-methoxy-N-(4-methoxybenzo[d]isoxazol-3-yl)benzenesulfonamide] | 1620 nM | 10500 nM | 1440 nM | 560 nM | – | – | – | 3460 nM |
| COc1cccc(OC)c1S(=O)(=O)Nc1noc2c(-c3cnn(C)c3)ccc(OC)c12 [Example 143, 2,6-Dimethoxy-N-(4-methoxy-7-(1-methyl-1H-pyrazol-4-yl)benzo[d]isoxazol-3-yl)benzenesulfonamide] | 50700 nM | > 125000 nM | 7880 nM | 32400 nM | – | – | – | – |
| COc1cccc(OC)c1S(=O)(=O)Nc1noc2cc(-c3ncco3)cc(OC)c12 [Example 144, 2,6-Dimethoxy-N-(4-methoxy-6-(oxazol-2-yl)benzo[d]isoxazol-3-yl)benzenesulfonamide] | 57 nM | 11500 nM | 286 nM | 261 nM | 2950 nM | 18800 nM | – | 128 nM |
| COc1cccc(OC)c1S(=O)(=O)Nc1noc2cc(-c3cccc(O)c3)cc(OC)c12 [Example 92] | 53 nM | 1390 nM | 60 nM | 6 nM | 703 nM | 4620 nM | – | 13 nM |
| COCc1cc(OC)c2c(NS(=O)(=O)c3c(OC)cc(-c4ccccc4)cc3OC)noc2c1 [Example 91, 3,5-Dimethoxy-N-(4-methoxy-6-(methoxymethyl)benzo [d]isoxazol-3-yl)-[1,1-biphenyl]-4-sulfonamide] | 37 nM | 2180 nM | 79 nM | 9 nM | 874 nM | 8020 nM | – | 182 nM |
| COCc1cc2onc(NS(=O)(=O)c3c(OC)cccc3OC)c2c(OC)c1Cl [Example 145] | – | 21000 nM | 259 nM | 127 nM | 3380 nM | > 40000 nM | – | 98 nM |
| COCc1cc2onc(NS(=O)(=O)c3c(OC)cccc3OC)c2cc1C [Example 97, 2,6-Dimethoxy-N-(6-(methoxymethyl)-5-methylbenzo[d]isoxazol-3-yl)benzenesulfonamide] | 49 nM | 6180 nM | 444 nM | 61 nM | 1090 nM | 28000 nM | – | 45 nM |
| CCOCc1cc(OC)c2c(NS(=O)(=O)c3c(OC)cccc3OC)noc2c1 [Example 172] | 42 nM | 9070 nM | 426 nM | 37 nM | 1450 nM | 29200 nM | – | 14 nM |
